Experimental data as given in US20190153024A1, “NOVEL SALTS AND POLYMORPHS OF SCY-078” (priority 2015, published 2019).

Tests used:
[1] = Chemical and physical stability of SCY-078 salts on storage (25° C./60% RH, 40° C./75% RH, 60° C.); type: physicochemical
Description: For all compounds tested other than the trifluoroacetate salts (Type A and B) and the HCl Type I and II salts, the conditions and parameters used for measuring solubility are shown in Table 2A and for measuring stability are showing in Table 3A. The conditions and parameters used for the solubility of the trifluoroacetate salts (Type A and B) and the HCl Type I and II salts are shown in Table 2B and for stability are shown in Table 3B.

[2] = Dynamic Vapor Sorption (DVS) water uptake; type: physicochemical; settings: for solid form by XRPD after DVS: after DVS experiment
Experimental: Dynamic Vapor Sorption (DVS)—The term “DVS” means the procedure described in below. The relative humidity at 25° C. was calibrated against deliquescence point of LiCl, Mg(NO3)2 and KCl.
The DVS of SCY-078 salts were tested according to the above method, using a 10-20 mg sample size. The DVS was measured using a Surface Measurement Systems (SMS) DVS Intrinsic.

[3] = pH value of saturated SCY-078 salt solutions in water; type: physicochemical; settings: saturated salt solution in H2O, room temperature; for pH 1 hr: equilibrated 1 hour; for pH 24 hrs: equilibrated 24 hours
Experimental: To test the pH, a solution of each compound was equilibrated at room temperature using a rolling incubator (25 rpm) for 1 hour and 24 hours before measurement.

[4] = Solid form stability on storage under ambient conditions; type: physicochemical; settings: 2 days
Experimental: SCY-078 Citrate Type E: SCY-078 citrate Type E was obtained by drying a metastable solvate SCY-078 citrate Type R from MeOH/IPAc.
SCY-078 Citrate Type M: SCY-078 citrate Type M was obtained by storing SCY-078 citrate Type E in ambient conditions for 2 days. […] (onset temperatures) (FIG. 58). […] (FIG. 58).
SCY-078 Trifluoroacetate Type A is highly crystalline as shown in the XRPD (FIG. 85). […] The molar ratio of trifluoroacetate Type A (acid: freebase) was determined to be 1:1 via HPLC-IC confirmation.

[5] = Kinetic solubility of trifluoroacetate Types A and B and HCl Type I (alternative procedure: SGF, FaSSIF and FeSSIF alternative media, acetate pH 5.5, phosphate pH 6.0 alternative media); settings: for Form change: residual solid by XRPD
[6] = Physical and chemical stability of trifluoroacetate Types A and B and HCl Type I for 1, 2, 4 and 8 weeks; type: physicochemical
[7] = Form change of trifluoroacetate on storage at varying relative humidity; type: physicochemical; settings: storage for 24 hours
Experimental: To investigate transition relationship of trifluoroacetate Type A and Type B, both samples were stored in chambers with varying relative humidity to monitor any form change. […] Varying temperature (VT)-XRPD of trifluoroacetate Type A was performed.

[8] = 25° C./60% RH, open dish, 1 week
[9] = 40° C./75% RH, open dish, 1 week
[10] = 25° C./60% RH (uncapped), 1 week
[11] = 25° C./60% RH (uncapped), 2 weeks
[12] = 25° C./60% RH (uncapped), 4 weeks
[13] = 25° C./60% RH (uncapped), 8 weeks
[14] = 40° C./75% RH (uncapped), 1 week
[15] = 40° C./75% RH (uncapped), 2 weeks
[16] = 40° C./75% RH (uncapped), 4 weeks
[17] = 40° C./75% RH (uncapped), 8 weeks

SMILES: CC(C)[C@@H](C)[C@@]1(C)CC[C@]2(C)[C@H]3CC[C@@H]4[C@@]5(COC[C@]4(C)[C@@H](OC[C@](C)(N)C(C)(C)C)[C@H](n4ncnc4-c4ccncc4)C5)C3=CC[C@@]2(C)[C@@H]1C(=O)O.O=C(O)/C=C/C(=O)O [SCY-078 fumarate Type A]
- Impurity % by HPLC [1, 8]: 0.09%
- Impurity % by HPLC [1, 9]: 0.10%
- Impurity % by HPLC ([1]; 60° C., closed dish, 1 week): 0.10%
- Impurity % by HPLC ([1]; Initial): 0.12%
- water uptake (DVS) ([2]; 25° C., 80% RH): 2.5%
- solid form by XRPD after DVS [2]: no form change
- pH 1 hr [3]: 4.4
- pH 24 hrs [3]: 3.8

SMILES: CC(C)[C@@H](C)[C@@]1(C)CC[C@]2(C)[C@H]3CC[C@@H]4[C@@]5(COC[C@]4(C)[C@@H](OC[C@](C)(N)C(C)(C)C)[C@H](n4ncnc4-c4ccncc4)C5)C3=CC[C@@]2(C)[C@@H]1C(=O)O.O=C(O)CC(O)(CC(=O)O)C(=O)O [SCY-078 citrate Type E]
- solid form stability at ambient conditions [4]: not stable

SMILES: CC(C)[C@@H](C)[C@@]1(C)CC[C@]2(C)[C@H]3CC[C@@H]4[C@@]5(COC[C@]4(C)[C@@H](OC[C@](C)(N)C(C)(C)C)[C@H](n4ncnc4-c4ccncc4)C5)C3=CC[C@@]2(C)[C@@H]1C(=O)O.O=C(O)CC(O)(CC(=O)O)C(=O)O [SCY-078 citrate Type A]
- time stable when stored ([1]; 25° C. and 60% relative humidity): at least 1 week
- Impurity % by HPLC [1, 8]: 0.09%
- time stable when stored ([1]; 40° C. and 75% relative humidity): at least 1 week
- Impurity % by HPLC [1, 9]: 0.10%
- time stable when stored ([1]; 60° C.): at least 1 week
- Impurity % by HPLC ([1]; 60° C., closed dish, 1 week): 0.17%
- Impurity % by HPLC ([1]; Initial): 0.34%
- solid form by XRPD after DVS [2]: No form change
- pH 1 hr [3]: 3.5
- pH 24 hrs [3]: 3.8

SMILES: CC(C)[C@@H](C)[C@@]1(C)CC[C@]2(C)[C@H]3CC[C@@H]4[C@@]5(COC[C@]4(C)[C@@H](OC[C@](C)(N)C(C)(C)C)[C@H](n4ncnc4-c4ccncc4)C5)C3=CC[C@@]2(C)[C@@H]1C(=O)O.O=C(O)C(F)(F)F [SCY-078 Trifluoroacetate Type A]
- form change of residual solid in FaSSIF alternative media ([5]; FaSSIF alternative media, ambient temperature, listed as trifluoroacetate Type A): no form change was observed
- form change of residual solid in FeSSIF alternative media ([5]; FeSSIF alternative media, ambient temperature, listed as Trifluoroacetate Type A): converted to Type B
- form change of residual solid in SGF ([5]; SGF, ambient temperature, listed as trifluoroacetate Type A): no form change was observed
- solubility in acetate buffer (comparison) ([5]; acetate buffer pH 5.5, ambient temperature, 4 hr and 24 hrs): higher solubility
- form change of residual solid in acetate buffer ([5]; acetate buffer pH 5.5, ambient temperature, listed as Trifluoroacetate Type A): no form change was observed
- solubility trend in FeSSIF alternative media ([5]; after an hour): decreasing solubility
- solubility in phosphate (pH 6.0) alternative media (comparison) ([5]; phosphate (pH 6.0) alternative media, ambient temperature, 4 hr and 24 hrs): lower solubility
- form change of residual solid in phosphate (pH 6.0) alternative media ([5]; phosphate (pH 6.0) alternative media, ambient temperature, listed as Trifluoroacetate Type A): firstly converted to Type B at 4 hrs and back to Type A at 24 hrs
- solid form stability at ambient conditions [4]: converted to Type B
- physical and chemical stability ([6]; 25° C./60% RH, 40° C./75% RH and 60° C., 8 weeks, listed as trifluoroacetate Type A): physically and chemically stable

SMILES: CC(C)[C@@H](C)[C@@]1(C)CC[C@]2(C)[C@H]3CC[C@@H]4[C@@]5(COC[C@]4(C)[C@@H](OC[C@](C)(N)C(C)(C)C)[C@H](n4ncnc4-c4ccncc4)C5)C3=CC[C@@]2(C)[C@@H]1C(=O)O.O=C(O)C(F)(F)F [TFA Type B]
- Form by XRPD after storage ([7]; Relativity Humidity 0%): Type B
- Form by XRPD after storage ([7]; Relativity Humidity 22%): Type B
- Form by XRPD after storage ([7]; Relativity Humidity 97%): Type A
- Form change ([5]; FeSSIF alternative media, 1 hr): No
- Form change ([5]; FeSSIF alternative media, 4 hrs): No
- Form change ([5]; FeSSIF alternative media, 24 hrs): No
- Form change ([5]; phosphate (pH 6.0) alternative media, 4 hrs): No
- HPLC purity [6, 10]: 99.9%
- Solid form [6, 10]: Type A
- HPLC purity [6, 11]: 99.9%
- Solid form [6, 11]: Type A
- HPLC purity [6, 12]: 99.9%
- Solid form [6, 12]: Type A
- HPLC purity [6, 13]: 99.9%
- Solid form [6, 13]: Type A
- HPLC purity [6, 14]: 99.9%
- Solid form [6, 14]: Type A
- HPLC purity [6, 15]: 99.9%
- Solid form [6, 15]: Type A
- HPLC purity [6, 16]: 99.9%
- Solid form [6, 16]: Type A
- HPLC purity [6, 17]: 99.9%
- Solid form [6, 17]: Type A
- HPLC purity ([6]; 60° C. (capped), 1 week): 99.9%
- Solid form ([6]; 60° C. (capped), 1 week): Type A
- HPLC purity ([6]; 60° C. (capped), 2 weeks): 99.9%
- Solid form ([6]; 60° C. (capped), 2 weeks): Type A
- HPLC purity ([6]; 60° C. (capped), 4 weeks): 99.9%
- Solid form ([6]; 60° C. (capped), 4 weeks): Type A
- HPLC purity ([6]; 60° C. (capped), 8 weeks): 99.9%
- Solid form ([6]; 60° C. (capped), 8 weeks): Type A
- Initial HPLC purity ([6]; Initial): 99.9%
